The series is described as follows: Human HepG2 cell viability assay in 384 well format. More on the design: dose 125 nL, time 70.5 hour; cytotoxicity at 70.5 h: concentration not given beside the values. The series is classed as toxicity, cell-based. As to conditions: HepG2 cells, read-out: Inhibition.

Each structure is given as a SMILES string.

On to `CC(C)NC(=O)c1ccc2nnc(C3CCN(C(=O)NC(C)C)C3)n2c1` (centres undefined), for which the cytotoxicity at 70.5 h was -0.652%.
Then `Cc1nc(-c2cc(C(=O)N3CCN(C)CC3)c3ccccn23)cn1C`, with -0.647%.
For the compound `CC(=O)N1CCC(c2nnc3ccc(C(=O)NC(C)C)cn23)C1` (centres undefined), the cytotoxicity at 70.5 h was -1.85%.
With `O=C(NC1CCCC1)c1nc2c(o1)CN(CCO)C2`, the cytotoxicity at 70.5 h is -0.956%.
As for `COC1COC2(CCN(C(=O)c3cscn3)CC2)C1` (centres undefined), the cytotoxicity at 70.5 h was -6.82%.
Then `CN(C)C(=O)CNC(=O)c1ccc2c(-c3nccs3)noc2c1`, with -3.55%.
Turning to `O=C1COC2(CCN(c3ncccn3)CC2)CN1c1ccsc1`, the cytotoxicity at 70.5 h was -4.75%.
`CCC(=O)N1CCC2(CC1)CC(CC(N)=O)c1ccc(F)cc12` (centres undefined): the cytotoxicity at 70.5 h is -7.49%.
Then `CC(C)N(C)Cc1noc2c1CN(C(=O)c1ccsc1)CC2`, with -12.5%.
For `COc1cc(N2CCc3ncnc(-c4cnn(C)c4)c3CC2)ncn1`, the cytotoxicity at 70.5 h is -12%.
Take `CN(C)CCNC(=O)c1ccc2c(-c3nccs3)noc2c1`: the cytotoxicity at 70.5 h is -8.08%.
Then `COC[C@]12COC[C@H]1CN(C(=O)C1CCSCC1)C2`, with -6.73%; and `O=C(NCCN1CCCC1)c1ccc2c(-c3nccs3)noc2c1`, with -6.42%.
Regarding `CNC(=O)c1cnc2n1CCN(Cc1cccnc1OC)C2`, the cytotoxicity at 70.5 h is -4.55%.
With `CC1c2ncc(Cn3cncn3)n2CCN1C(=O)Cc1cccs1` (centres undefined), the cytotoxicity at 70.5 h was -6.55%.
For `CCOCc1cnc2n1CCN(C(=O)Cc1ccco1)C2C` (centres undefined), the cytotoxicity at 70.5 h was -6.58%.
As to `C[C@H]1C[C@@H]2CCN(CC3CCOCC3)C[C@H]2O1`, the cytotoxicity at 70.5 h was -7.97%.
Then `CC(C)N1c2sc(-c3ccsc3)nc2CC1C(=O)NC1CCCC1` (centres undefined), with -7.06%; and `Nc1nc(N2CCCCCC2)ncc1C(=O)NCc1ccc(F)c(Cl)c1`, with -10.8%; and `Cc1cc(=O)[nH]c(=O)n1COCc1ccccc1`, with -18.6%.
For `COC(=O)CC1CCN(C(=O)c2ccc(C)cc2)CC1` the value was -4.4%; for `Cn1nnnc1SCc1cc2c(cc1Cl)OCO2`, -16%.
For the compound `CN(C)CCCNC(=O)c1ccc(Cl)cc1Cl`, the cytotoxicity at 70.5 h is -14.1%.
With `Cn1cnnc1SCc1cc2c(cc1Br)OCO2`, the cytotoxicity at 70.5 h was -1.06%.
For `COc1ccc2c(ccn2CCC(=O)/N=c2\[nH]nc(C3CCCO3)s2)c1` (centres undefined) the value was -15.5%; for `Cc1cs/c(=N\C(=O)c2c3c(nc4onc(C)c24)CCC3)[nH]1`, -19.5%; for `CN(C)CCNC(=O)c1ccccc1NC(=O)c1cc(Cl)ccc1Cl`, 26.4%.
Consider `CC1=Nc2c(c(O)nn2C2CCOCC2)C(c2cccnc2)S1` (centres undefined), for which the cytotoxicity at 70.5 h was -3.81%.
Take `COCc1n[nH]/c(=N\C(=O)c2c3c(nc4onc(C)c24)CCC3)s1`: the cytotoxicity at 70.5 h was -3.26%.
For `O=C(CCn1ccc2ccc(Br)cc21)/N=c1\[nH]nc(C2CCCO2)s1` (centres undefined) the value was -14.5%; for `O=C(Cn1ccc2ccc(Cl)cc21)/N=c1\[nH]nc(C2CCCO2)s1` (centres undefined), -2.63%; for `COC(=O)CC1CCN(C(=O)c2ccccc2-n2nnnc2C)CC1`, -12.6%.
Regarding `CC1=Nc2c(c(O)nn2C(C)C)C(c2cccnc2)S1` (centres undefined), the cytotoxicity at 70.5 h stood at 26.1%.
On to `O=c1cc(-c2ccccc2)nc2n1CCCCC2`, for which the cytotoxicity at 70.5 h was 23.6%.
In the case of `CCOc1cccc(CNc2cccc(C(=O)OC)c2)c1O`, the cytotoxicity at 70.5 h is -19.3%.
Turning to `CCOc1cccc(CNc2ccccc2OC)c1O`, the cytotoxicity at 70.5 h is -8.56%.
With `CCc1ccc(-n2nnc(C(=O)O)c2-c2ccccn2)cc1`, the cytotoxicity at 70.5 h is -26.2%.
As for `COc1ccc(-n2nnc(C(=O)O)c2-c2ccccn2)cc1`, the cytotoxicity at 70.5 h is -14.5%.
For `O=S(=O)(NC1=NCN(CCc2ccccc2)CN1)c1ccc(F)cc1` the value was -27.6%; for `O=C(NCCN1CCOCC1)c1nc(-c2ccc3[nH]ccc3c2)no1`, -30.5%.
For the compound `Cc1c(C)n(Cc2ccccn2)c2nc3c(c(N)c12)CCCCC3`, the cytotoxicity at 70.5 h was 27.5%.
Then `COc1ccc(N2Cc3nc(=O)n(C(C)C)n3C2=O)cc1`, with -15.6%; and `CN(C(=O)Cn1nc(-c2ccccc2F)ccc1=O)C1CCS(=O)(=O)C1` (centres undefined), with -25.7%; and `CN(C(=O)Cn1nc(-c2ccc(Cl)cc2)ccc1=O)C1CCS(=O)(=O)C1` (centres undefined), with -21.1%.
For `Cc1nnc2ccc(N3CCC(C(=O)Nc4nccs4)CC3)nn12`, the cytotoxicity at 70.5 h was determined as 1.41%.
Then `Cc1c(C)n(Cc2ccccn2)c2nc3c(c(N)c12)CCCCCC3`, with 22%; and `O=c1ccc(-c2cccs2)nn1CN1CCc2ccccc2C1`, with -23.7%; and `O=C1CC(c2ccc3c(c2)OCO3)c2c(n3ccsc3nc2=O)N1` (centres undefined), with -9.84%.
`Cc1ccc(N2Cc3nc(=O)n(C(C)C)n3C2=O)cc1`: the cytotoxicity at 70.5 h was -28.9%.
On to `Cc1oc(-c2nc(C#N)c(NCC(C)C)o2)cc1S(=O)(=O)N1CCCC1`, for which the cytotoxicity at 70.5 h was -13.1%.
As for `Cc1oc(-c2nc(C#N)c(NC(C)(C)C)o2)cc1S(=O)(=O)N1CCCC1`, the cytotoxicity at 70.5 h was -8.41%.
Turning to `COc1ccc(NS(=O)(=O)CC2=NC(=O)n3cccc3C2=O)cc1Cl`, the cytotoxicity at 70.5 h was -8.91%.
Then `O=c1c(S(=O)(=O)N2CCCCC2)cccn1Cc1cccnc1`, with -9.28%; and `COc1ccc(-c2nc(C)cc(SCC(N)=O)n2)cc1`, with -2.23%.
`CCCN(CCC)c1ncc(S(=O)(=O)c2ccc(C)cc2)c(N)n1`: the cytotoxicity at 70.5 h is -19.9%.
Turning to `CCCN(CCC)c1ncc(S(=O)(=O)c2ccc(OC)cc2)c(N)n1`, the cytotoxicity at 70.5 h was -9.23%.
Turning to `Cc1c(C(=O)O)cnn1-c1ccc(-c2nc(C3CC3)no2)cn1`, the cytotoxicity at 70.5 h is -14%.
In the case of `Cc1c(C(=O)N2CCN(c3ccccn3)CC2)n(C)c2ccc(Cl)cc12`, the cytotoxicity at 70.5 h is -13.6%.
Consider `CCc1c(C)n(CCOC)c2nc3ccccc3n2c1=O`, for which the cytotoxicity at 70.5 h amounted to 19.8%.
For `CC1CC(=O)c2cnc3nc(N4CCOCC4)[nH]c(=O)c3c2C1` (centres undefined) the value was -15.8%.
For `OCCNc1nc(NCCc2ccccc2)nc2nccnc12`, the cytotoxicity at 70.5 h is -1.57%.
For `CC1(C)CC(=O)c2cnc3nc(N4CCCCC4)nc(O)c3c2C1`, the cytotoxicity at 70.5 h is -11%.
Then `COc1ccccc1C1CC(=O)Nc2c1c(=O)[nH]n2C(C)C` (centres undefined), with 25.6%; and `CCOC(=O)CC(c1ccc(OC)cc1)c1c(O)n[nH]c1C` (centres undefined), with -13.7%; and `O=C(NCCc1nccs1)C(c1ccccc1)n1cnnn1` (centres undefined), with -4.94%.
`CC(O)CNC(=O)c1nc(Cc2c(Cl)cccc2Cl)no1` (centres undefined): the cytotoxicity at 70.5 h is -4.9%.
For `c1cc(C2CCN(c3cnccn3)CC2)ncn1` the value was 1.96%.
`CN(C)c1nccc(C2CN(c3ccccc3)CCO2)n1` (centres undefined): the cytotoxicity at 70.5 h was -4.49%.
With `CN(C)CCn1nc(C2CCN(S(=O)(=O)N(C)C)C2)c2cccnc21` (centres undefined), the cytotoxicity at 70.5 h is -3.16%.
For `Cc1cc(C)n(CCNCc2cc(-c3ccc(F)cc3)c[nH]c2=O)n1` the value was 1.4%.
On to `Cn1cc(CN2CCc3nc4sccc4c(=O)n3CC2)cn1`, for which the cytotoxicity at 70.5 h was -3.58%.
Then `CCC(C)NC(=O)c1cc(S(=O)(=O)N(C)C)c(C)s1` (centres undefined), with -4.34%.
`Cc1cc(Nc2cnccn2)cc(C2CCCN2)n1` (centres undefined): the cytotoxicity at 70.5 h was 12.2%.
Then `Nc1ncc(-c2ccc(Cl)cc2)c(C2CCCNC2)n1` (centres undefined), with 37.3%; and `Cc1cc(N(C)C)nc(C2COCCN2Cc2csc(C)n2)n1` (centres undefined), with 10.4%.
Consider `c1csc(-c2noc(C3CCCNC3)n2)c1` (centres undefined), for which the cytotoxicity at 70.5 h is -16.5%.
Regarding `CN(C)Cc1cc(C2CCN(C(=O)C3CC34CCC4)CC2)nn1C` (centres undefined), the cytotoxicity at 70.5 h was -0.0295%.
Take `Cc1csc(C(Cc2ccsc2)NC(=O)CN(C)Cc2cccnc2)n1` (centres undefined): the cytotoxicity at 70.5 h is -0.677%.
Regarding `O=S(=O)(C1CC1)N1CCC2(CCN(Cc3nccs3)CC2)CC1`, the cytotoxicity at 70.5 h was -2.17%.
Turning to `CS(=O)(=O)N1CCC2(CCN(Cc3nccs3)CC2)CC1`, the cytotoxicity at 70.5 h was -0.411%.
Consider `CN(C)S(=O)(=O)N1CC[C@]2(C[C@H](OCc3ccncc3)CO2)C1`, for which the cytotoxicity at 70.5 h was -0.865%.
For `OCCN1CCC2(CCc3cc(-c4ccoc4)ccc32)CC1` the value was -2.95%; for `c1ccc(CCNCC2Cn3nncc3CO2)cc1` (centres undefined), -0.333%; for `Cc1ccc(CN2CC[C@H]3[C@H]2CCN3S(=O)(=O)C2CC2)cc1`, -6.33%.
Regarding `COCCN1CCN(S(=O)(=O)C2CC2)Cc2ccc(C)nc21`, the cytotoxicity at 70.5 h is -5.69%.
As for `CN(C)Cc1nc2c(o1)CN(C(=O)NCc1cccc(F)c1)C2`, the cytotoxicity at 70.5 h was -5.42%.
`O=C(c1cocn1)N1CCC2(CC1)CC(Oc1ccccn1)CO2` (centres undefined): the cytotoxicity at 70.5 h is -8.48%.
For the compound `COCCN1CCC2(COCCN(C(=O)Cc3cccs3)C2)C1` (centres undefined), the cytotoxicity at 70.5 h is -5.29%.
For `CN(C)CCN1CCC2(CCCN(C(=O)C3CCC3)C2)CC1`, the cytotoxicity at 70.5 h is -1.03%.
For `COCC(=O)N1CCCC2(CCN(CCN3CCCC3)CC2)C1`, the cytotoxicity at 70.5 h is -1.48%.
`CN(C)CC(=O)N1CCC2(CCc3cc(-c4cccnc4)ccc32)CC1`: the cytotoxicity at 70.5 h is -0.278%.
`c1csc(CN2CCC3(CC2)CCN(CC2CC2)CC3)n1`: the cytotoxicity at 70.5 h stood at 14.9%.
On to `CN1CCC(NC(=O)[C@H]2CC[C@@H]3[C@@H](CCN3c3ncccn3)O2)CC1`, for which the cytotoxicity at 70.5 h was -6.76%.
For `C[C@@H]1CN(C2CCOCC2)C[C@]12CCN(c1cccnc1)C2=O` the value was -5.4%.
As to `COc1ncccc1CN1CCn2c(C(=O)N3CCCC3)cnc2C1`, the cytotoxicity at 70.5 h was -5.02%.
For `COc1cccc(CN(Cc2ccco2)Cc2[nH]cnc2C)c1` the value was 6.19%; for `Cc1nc(CN2CCC(O)(c3ccccc3F)CC2)c2ccccn12`, 11.2%; for `c1ccc([C@@H]2CN(Cc3ccncc3)C[C@H]2c2cc[nH]n2)cc1`, -1.08%.
Consider `CN(C)C(=O)c1cn[nH]c1C1CCCN1Cc1nccn1C` (centres undefined), for which the cytotoxicity at 70.5 h was determined as 22.5%.

The record behind these values is ChEMBL document CHEMBL3507680, “University of Dundee, Gates Library screen for HepG2 cell viability”.
